Measurements published in patent EP1980559A1, “Cardiovascular agents” (CTG Pharma S.r.l., priority 2007, dated 2008).

Key:
[1] = test system: spontaneously hypertensive rats (SHRs); assay: Antihypertensive activity in vivo: systolic blood pressure by telemetry in conscious SHRs; conditions: daily oral dose for 3 days, losartan 10 mg/kg po or equimolar dose; for Systolic blood pressure (SBP) 1 hr: 1 hr after dosing; for Systolic blood pressure (SBP) 12 hr: 12 hr after dosing; for Systolic blood pressure (SBP) 24 hr: 24 hr after dosing
Description: The ability of compound of example 1 to decrease blood pressure was evaluated in conscious spontaneously hypertensive rats (SHRs).
Three groups of SHRs (250-300g) received daily oral dose of losartan (10 mg/kg po) or compound of example 1 (equimolar dose) or vehicle (SHR control group) for 3 days. Systolic blood pressure (SBP) and heart rate were monitored by telemetry at different time points after dosing. The SBP was measured at baseline and after 1 hour, 12 hours and 24 hours.

[2] = test system: isolated rabbit thoracic aorta preparations; assay: Study on vascular tone: vasorelaxation in isolated rabbit thoracic aorta preparations; conditions: aorta rings contracted submaximally with noradrenaline (1 µM); concentration-response curve
Description: The ability of ARB derivatives to induce vasorelaxation in comparison to native ARB, was tested in vitro in isolated rabbit thoracic aorta preparations (Wanstall J. C. et al., Br. J. Pharmacol., 134:463-472, 2001). Male New Zealand rabbits were anaesthetized with thiopental-Na (50 mg/kg, iv), sacrificed by exsanguinations and then the thorax was opened and the aorta dissected.
Single ring preparations (4 mm in length) of thoracic aorta were set up in physiological salt solution at 37 °C in small organ chambers (5 ml). Each ring was mounted under 2g passive tension in 5 ml organ bath. Preparations were allowed to equilibrate for 1 h, then contracted submaximally with noradrenaline (NA, 1 µM) and, when the contraction was stable, acetylcholine (ACh, 10 µM) was added.
A relaxant response to ACh indicated the presence of a functional endothelium.

NAD(P)H oxidases [3] = assay: NAD(P)H oxidases inhibition: superoxide (O2^-) release by ferricytochrome c reduction in PAVSMCs; format: cell-based, porcine; conditions: PAVSMCs stimulated with LPS, TNFα and IL1α; 100 nM; 16 hours incubation
Description: (§1) The method described by Muzaffar S, Shukla N, Angelini GD, Jeremy JY; "Prednisolone augments superoxide formation in porcine pulmonary artery endothelial cells through differential effects on the expression of nitric oxide synthase and NADPH oxidase" in Br. J. Pharmacol. 2005 Ju1;145(5):688-97 was used.
(§2) Briefly lungs were obtained from male pigs of body weight ranging from 20 - 35 kg. Pulmonary arteries (PA) of between 3-4 mm diameter were dissected from the lungs within 30 minutes and placed in Dulbecco's Minimum Essential Medium (DMEM). The arteries were then cut into 2 mm segments for preparation of cell cultures. PAECs were grown in Endothelial Cell Growth Medium at 37°C in a 95% air-5% CO2 incubator. The measurement of superoxide (O2^-) release by cells was performed by detection of ferricytochrome c reduction.
(§3) The reduction of cytochrome c that was inhibitable with SOD reflected actual O2^- release. PAVSMCs and PAECS were seeded and incubated with the TXA2 analogue, U46619, isoprostane F2α,LPS (endotoxin) human recombinant IL-1α and human recombinant TNF-α, alone or with drugs for 16 hours. RESULTS
(§4) LPS, IL-1α, TNF-α and U46619 all promoted the formation of O2^- in both porcine pulmonary artery VSMCs (PAVSMCs) and endothelial cells (PAECS) compared to untreated controls following a 16 hour incubation. […]

NAD(P)H oxidases [4] = assay: NAD(P)H oxidases inhibition: superoxide (O2^-) release by ferricytochrome c reduction in PAECs; format: cell-based, porcine; conditions: PAECs stimulated with LPS, TNFα and IL1α; 100 nM; 16 hours incubation
Description: as §1, §2, §3, §4

Structure (SMILES) | Systolic blood pressure (SBP) 1 hr [1] [mm Hg] | Systolic blood pressure (SBP) 12 hr [1] [mm Hg] | Systolic blood pressure (SBP) 24 hr [1] [mm Hg] | Systolic blood pressure (SBP) Baseline [1] [mm Hg] | relaxation [2] | formation of O2^- (NAD(P)H oxidases [3]) | formation of O2^- (NAD(P)H oxidases [4])
CCCCc1nc(Cl)c(COC(=O)c2ccc(-c3cssc3=S)cc2)n1Cc1ccc(-c2ccccc2-c2nn[nH]n2)cc1 [Cpd EX.1, 4-(3-thioxo-3H-1,2-dithiol-4-yl)benzoic acid 2-butyl-4-chloro-1-[p-(o-1H-tetrazol-5-ylphenyl)-benzyl]imidazole-5-methyl ester] | 120 | 121 | 122 | 145 |  |  | 
CCCCc1nc(Cl)c(CO)n1Cc1ccc(-c2ccccc2-c2nn[nH]n2)cc1 [Losartan, losartan] | 135 | 134 | 135 | 143 | did not produce relaxation at any of the concentration tested | no significant effect | no significant effect
